Measurements published in US5110927A (The United States of America as represented by the …, priority 1987, dated 1992).
Entries after “also recorded” stand apart in the source; their conditions may differ. Where two headings read alike, the source gives them in different places.

Legend:
[1] = biological target: α1-adrenoceptor (3H-prazosin binding sites); assay: displacement of 3H-prazosin from rat cerebral cortical (brain) membranes; conditions: for -logIC50: 3H-prazosin displacement, rat cerebral cortical membranes
Method: IC50 values and apparent Ki values were determined as in Table 1.
(§1) Rat brain cortices were homogenized in approximately 30 volumes/wet weight of 50 mM Tris buffer, pH 7.4, containing 10 mM MgCl2 by use of a Polytron (setting 6 for 10 seconds). It should be noted that this buffer was used throughout the experimental procedures. The homogenate was centrifuged at 48,000×g for 10 minutes in a Sorvall RC-5B centrifuge. The resulting pellet was resuspended in buffer by use of a Polytron and recentrifuged. This process was repeated and the pellet was resuspended in approximately 200 volumes for affinity studies or 20 volumes for irreversibility experiments.
Specific binding was defined as the difference between total binding (measured in the absence of any ligand) and non-specific binding (measured in the presence of 10 microM phentolamine). Duplicate tubes were used for each condition. Reaction tubes were incubated for 30 minutes at 30° C., then diluted to 5 ml with ice cold buffer, and filtered under reduced pressure through Whatman GF/C glass fiber filters. The reaction tubes and filters were washed three additional times with buffer.

[2] = test system: alpha1-adrenoceptors and other receptors; conditions: prior art; cited from earlier work
[3] = test system: phenylephrine, alpha1-adrenergic pressor response; assay: diastolic blood pressure response to phenylephrine in anesthetized rats; format: in vivo, rat; conditions: i.v., prazosin 0.11 mg/kg or compound 47 0.09 mg/kg, 15 min
Method: (§2) Male rats were anesthetized, cannulated, and treated with hexamethonium bromide to block ganglionic effect, and their basal response in blood pressure to pressor compounds was measured. […] After fifteen minutes, the response in blood pressure to pressor compounds was re-evaluated.

[4] = test system: BHT 933, alpha2-adrenergic pressor response; assay: diastolic blood pressure response to BHT 933 in anesthetized rats; format: in vivo, rat; conditions: i.v., prazosin 0.11 mg/kg or compound 47 0.09 mg/kg, 15 min
Method: as §2

[5] = test system: hypertensive patients; normotensive and hypertensive animals; conditions: human, in vivo; cited from earlier work
[6] = test system: α1-adrenoceptor (3H-prazosin binding sites); assay: irreversibility experiment: membranes preincubated with compound, washed, assayed for saturation of 3H-prazosin binding; set-up: species or system rat; conditions: for irreversible blockade / effect on 3H-prazosin binding sites (in words): membranes, preincubation and washing
[7] = test system: α1-adrenoceptor (3H-prazosin binding sites); assay: intact animal study: intraperitoneal injection, membranes prepared 16 hours later and assayed for saturation of 3H-prazosin binding; format: in vivo, rat
Method: Sixteen hours later, the animals were sacrificed, membranes were prepared from various tissues, and assayed for saturation of ^3 -prazosin binding.
To test its efficacy in vivo. compound No. 47 was injected intraperitoneally at a dose of 10 mg/kg into rats. In membranes prepared from brains and hearts of animals 16 hours after injection of compound 47, a 32-44% decrease in Bmax was noted, compared to animals injected with vehicle only. […]

[8] = test system: beta-adrenoceptors (3H-DHA binding sites); assay: irreversibility experiment: preincubation and washing of brain membranes, then 3H-DHA binding; set-up: species or system rat; conditions: preincubated and washed
Method: (§3) FIG. 5 - In vitro blockage of adrenergic binding sites in rat brain membranes by compound No. b 47 Membranes were preincubated without 0---0, or with 0---0 1×10^-7 M of compound No. 47 and processed as described in the Methods. Membranes were assayed for ^3 -prazosin binding and either ^3 -DHA or ^3 -yohimbine binding. The data are the averages of two separate experiments.
(§4) Aliquots of a suspension of membranes (5 ml), prepared as described above, were incubated with either the addition of only buffer (control) or a solution of the tested compound at various concentrations ranging from 1×10^-10 to 1×10^-5 for about 60 minutes at about 30° C. The suspensions were then diluted to approximately 40 mL with buffer, and incubated a further 10 minutes on ice. The membranes were then washed by a series of four centrifugations and resuspensions before they were finally resuspended in approximately 50 mL buffer for assay of saturation of ^3 -prazosin binding.

[9] = test system: cholinergic (muscarinic) activated efflux of calcium ions, rat parotid cells; assay: calcium efflux activated by cholinergic (muscarinic) system in dispersed parotid cells; format: cell-based
[10] = biological target: T1, beta-adrenoceptors (3H-DHA binding sites) (Rattus norvegicus, UniProt P18090); assay: displacement of 3H-DHA from rat brain membranes
T1 construct: Membranes from rat brain cortex were prepared; from tissue; host or cells: rat brain cortex membranes
Method: (§5) FIG. 1 - Affinity of compound No. 47 at adrenergic binding sites on brain membranes. Membranes from rat brain cortex were prepared and the displacement of either ^3 H-prazosin 0---0, ^3 H-yohimbine Δ---Δ or ^3 H-DHA --- by compound No. 47 was measured. IC50 values and apparent Ki values were determined as in Table 1. The data in the figure are from a representative experiment which was repeated. […] The results are the averages of two separate experiments.
as §1

[11] = test system: catecholamine-activated efflux of calcium ions, rat parotid cells; assay: calcium efflux activated by catecholamines in dispersed parotid cells; format: cell-based
[12] = test system: alpha2-adrenoceptors (3H-yohimbine binding sites); assay: irreversibility experiment: preincubation and washing of brain membranes, then 3H-yohimbine binding; set-up: species or system rat; conditions: preincubated and washed
Method: as §3, §4

[13] = test system: norepinephrine-induced contraction of aorta rings; assay: contraction of rabbit aorta rings caused by norepinephrine; conditions: 10^-6 M, thirty minutes exposure
Method: Rings from aortas of rabbits were prepared using standard procedures, the rings were characterized, and the effects of compound 47 on contraction caused by norepinephrine were characterized.

[14] = biological target: alpha2-adrenoreceptors (3H-yohimbine binding sites); assay: displacement of 3H-yohimbine from rat brain membranes
Method: as §5, §1

[15] = biological target: T2, α1-adrenoceptor (3H-prazosin binding sites) (Rattus norvegicus, UniProt P15823); assay: irreversibility experiment: membranes preincubated with compound, washed, assayed for saturation of 3H-prazosin binding; conditions: spleen membranes, FIG. 3; statistically insignificant
T2 construct: Rat brain cortices were homogenized; from tissue; host or cells: rat brain cortex membranes; for some results heart ventricle, kidney cortex and spleen membranes
T2 sequence (P15823 1-515): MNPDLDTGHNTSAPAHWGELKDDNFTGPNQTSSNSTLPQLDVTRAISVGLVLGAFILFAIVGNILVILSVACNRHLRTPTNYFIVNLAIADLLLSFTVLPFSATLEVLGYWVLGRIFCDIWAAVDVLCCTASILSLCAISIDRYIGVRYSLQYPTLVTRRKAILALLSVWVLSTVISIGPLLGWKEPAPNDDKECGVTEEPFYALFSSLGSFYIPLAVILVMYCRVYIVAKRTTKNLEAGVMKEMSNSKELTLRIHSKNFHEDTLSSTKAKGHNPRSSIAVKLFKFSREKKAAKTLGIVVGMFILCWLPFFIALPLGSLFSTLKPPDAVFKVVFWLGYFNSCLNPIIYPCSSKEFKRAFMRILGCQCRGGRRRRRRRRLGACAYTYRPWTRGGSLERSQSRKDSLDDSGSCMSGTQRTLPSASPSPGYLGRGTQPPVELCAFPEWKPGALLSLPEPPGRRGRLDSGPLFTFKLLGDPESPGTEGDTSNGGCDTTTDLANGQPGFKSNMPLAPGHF

T1 sequence (P18090 whole entry): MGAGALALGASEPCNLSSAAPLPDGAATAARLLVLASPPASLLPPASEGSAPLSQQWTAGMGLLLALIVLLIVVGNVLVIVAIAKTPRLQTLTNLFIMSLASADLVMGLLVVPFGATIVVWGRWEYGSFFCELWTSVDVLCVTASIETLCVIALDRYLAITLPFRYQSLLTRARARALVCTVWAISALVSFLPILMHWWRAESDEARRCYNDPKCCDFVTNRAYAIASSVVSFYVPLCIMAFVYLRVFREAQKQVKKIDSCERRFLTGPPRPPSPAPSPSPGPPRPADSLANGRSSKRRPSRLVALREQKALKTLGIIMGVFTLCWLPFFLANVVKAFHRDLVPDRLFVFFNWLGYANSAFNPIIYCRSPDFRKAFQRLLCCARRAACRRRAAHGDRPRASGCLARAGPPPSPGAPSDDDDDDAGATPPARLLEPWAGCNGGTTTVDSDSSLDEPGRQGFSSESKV

Compound: COc1cc2nc(N3CCN(C(=O)c4ccco4)CC3)nc(N)c2cc1OC [Compound 1, 2-(4-(2-furoyl)-piperazine-1-yl)-4-amino-6,7-dimethoxy-quinazoline, reference compound]
- -logIC50 [1]: 9.79
- receptor specificity (in words) [2]: preferential affinity for postysynaptic alpha1 -adrenoreceptors
- effect on blood pressure response to phenylephrine [3]: a higher concentration of pressor compounds was required to obtain increases in blood pressure
- effect on blood pressure response to BHT 933 [4]: a higher concentration of pressor compounds was required to obtain increases in blood pressure
- lowering of blood pressure [5]: lower blood pressure in hypertensive patients and in normotensive and hypertensive animals
- irreversible blockade / effect on 3H-prazosin binding sites (in words) ([6]; listed as Prazosin): prevented the decrease in binding sites caused by compound 47 alone; also recorded: had no effect on ^3 -prazosin binding
- irreversible blockade / effect on 3H-prazosin binding sites (in words) ([6]; listed as prazosin): Washing the prazosin from the membranes restored the number of alpha1 -adrenoceptors

Compound: COc1cc2nc(N3CCN(C(=O)C4=CC5C=CC4CC5)CC3)nc(N)c2cc1OC (stereo not drawn) [Compound 47, 4-amino-2(4-bicyclo[2.2.2]octa-2,5-diene-2-carboxypiperazin-1-yl)-6,7-dimethoxyquinazoline]
- % Reduction in Bmax, brain ([7]; 10 mg/kg i.p., brain): 36%
- Kd ([7]; 10 mg/kg i.p., brain, control 0.317 ± 0.071, read-out: Kd, experimental, brain): 0.292 ± 0.045 nM
- % Reduction in Bmax, heart ([7]; 10 mg/kg i.p., heart): 43%
- Kd ([7]; 10 mg/kg i.p., heart, control 0.150 ± 0.019, read-out: Kd, experimental, heart): 0.255 ± 0.072 nM
- % Reduction in Bmax, kidney ([7]; 10 mg/kg i.p., kidney): 21%
- decrease in Bmax, brains and hearts ([7]; 10 mg/kg i.p., vs vehicle): 32-44%
- Kd of remaining receptors after i.p. injection (in words) ([7]; i.p.): a significant increase in the Kd of the remaining receptors was seen
- effect of preincubation on 3H-DHA binding (beta) [8]: unaffected
- effect of preincubation on 3H-DHA binding (beta) ([8]; listed as alkylated prazosin): did not introduce permanent change
- -logIC50 [1]: 7.99
- Ki ([1]; FIG. 1, rat brain cortex membranes, read-out: Apparent Ki at 3H-prazosin binding sites): 3.44 nM
- affinity to alpha1-adrenoceptors (in words) ([1]; discussion of Table 1): excellent affinity; also recorded: apparent nanomolar potency
- effect on muscarinic-activated calcium efflux [9]: did not interfere in the efflux of calcium ions
- Ki ([10]; FIG. 1, rat brain cortex membranes, read-out: Apparent Ki at 3H-DHA binding sites): 5910 nM
- displacement of 3H-DHA (in words) ([10]; brain membranes): much weaker competitor
- inhibition of catecholamine-activated calcium efflux [11]: potently inhibited the efflux of calcium ions
- effect of preincubation on 3H-yohimbine binding (alpha2) [12]: did not irreversibly block ^3 -yohimbine binding sites; also recorded: unaffected
- effect of preincubation on 3H-yohimbine binding (alpha2) ([12]; listed as alkylated prazosin): did not introduce permanent change
- persistence of effect on norepinephrine contraction of aorta rings [13]: could not be cancelled by 21 hours of washing at 4 °C
- effect on blood pressure response to phenylephrine [3]: counteracted only to phenylephrine
- Ki ([14]; FIG. 1, rat brain cortex membranes, read-out: Apparent Ki at 3H-yohimbine binding sites): 884 nM
- affinity at 3H-yohimbine binding sites relative to 3H-prazosin binding sites ([14]; brain membranes): over a hundred times lower
- displacement of 3H-yohimbine (in words) ([14]; brain membranes): much weaker competitor
- preincubation time to maximum blockade ([6]; FIG. 6, 1×10^-8 M, preincubation 15 min to 3 hr): about 45 minutes
- Kd (KD) of remaining 3H-prazosin binding sites (in words) ([6]; after preincubation and washing): without a change in the affinity (KD) of the remaining sites; also recorded: Higher concentrations in the preincubation mixture increased the Kd of the remaining sites; also recorded: only decreased the concentration of ligand by 10- and 100-fold, respectively, at which the large Kd effects were noted; also recorded: the Kd of the remaining receptors increased when lower concentrations of added ligand were used in the diluted preincubation mixtures
- blockage of 3H-prazosin binding ([6]; brain membranes, 1 micromole of compound 47 in preincubation): approximately 50%
- maximum blockade of 3H-prazosin binding sites ([6]; brain membranes, altered protocols): no more than 50%
- reduction of 3H-prazosin binding ([6]; brain membranes, preincubated with 10 nM, washed): 50%
- maximum blockade after double preincubation ([6]; brain membranes, two preincubations with 10 nM, FIG. 7): ≤ 50%
- blockade of binding sites, heart membranes ([6]; heart membranes, preincubated, FIG. 3): 40-50%
- blockade of binding sites, kidney membranes ([6]; kidney membranes, preincubated, FIG. 3): 40-50%
- irreversible blockade / effect on 3H-prazosin binding sites (in words) [6]: irreversible; also recorded: decreased the number of alpha1 -adrenoceptors permanently
- irreversible blockade / effect on 3H-prazosin binding sites (in words) ([6]; listed as alkylated prazosin): Only approximately one half of the alpha1 -adrenoceptors could be eliminated in a clean manner
- blockade of 3H-prazosin binding sites under altered protocols (in words) ([6]; preincubation time, ligand/receptor ratio, buffer, (-)epinephrine, double preincubation): remained at this level even after three hours of preincubation; also recorded: No difference in blockade; also recorded: Increasing the preincubation time up to three hours did not increase the amount of blockade; also recorded: did not change the outcome of the results; also recorded: did not affect the amount of blockade; also recorded: did not lead to further blockade
- decrease in binding sites, spleen membranes [15]: 18%
